Measured values: US9694090B2, “Process for preparing hyperpolarized substrates and method for MRI” (priority 2010, dated 2017)

Legend:
[1] = Glass formation of the DNP preparation upon rapid freezing in liquid nitrogen; format: physicochemical; details: for Glass formation upon rapid freezing in liquid nitrogen: dissolved in 12 M NaOH with radical 1; for Glass formation upon rapid freezing: with trityl radical, without addition of glass-forming agents
Procedure: Butyric acid (11.7 mg, 0.13 mmol) was placed into an Eppendorf tube and mixed with 9.0 mg of a glycerol solution containing 39 mM of Radical 1. This preparation was 7 M with respect to butyric acid.
Butyric anhydride (40 μl, 0.24 mmol) was added to an Eppendorf tube and mixed with 1 mg of Radical 3 in a total concentration of 15 mM. This preparation was 6.5 M with respect to butyric anhydride (which, upon hydrolysis provides a 13 M concentration in butyric acid molecules).
Butyric acetic anhydride (36 μl, 0.28 mmol) was added to an Eppendorf tube and mixed with 0.85 mg of acid form of Radical 3 in a total concentration of 15 mM. This preparation was 7.5 M with respect to butyric acetic acid.
Li-acetoacetate (22.4 mg, 0.21 mmol) was added to an Eppendorf tube and mixed with 28 μl of a DMSO preparation (25 mM Radical 3 and 0.8 mM 3-Gd). This preparation was 4 M with respect to Li-acetoacetate.
To an Eppendorf tube was added diketene (9.6 mg, 0.11 mmol) and mixed with 4.7 mg of a DMSO preparation of Radical 3 (45 mM) and 3-Gd (1.5 mM). This preparation was 8.5 M with respect to diketene.
Ethyl acetoacetate (45 μl, 0.34 mmol) was added to an Eppendorf tube and mixed with acid form of Radical 2 (0.7 mg, 0.65 μmol) in a total concentration of 15 mM. This preparation was 8 M with respect to ethyl acetoacetate.
Cis-aconitic acid (18.6 mg, 0.11 mmol) was added to an Eppendorf tube and mixed with a 32.5 μl DMSO preparation (25 mM Radical 3 and 0.8 mM 3-Gd). This preparation was 2.5 M with respect to cis-aconitic acid.
Cis-aconitic anhydride (188 mg, 1.2 mmol) was added to an Eppendorf tube and mixed with 2.85 mg (2 μmol) of Radical 1 and 0.98 mg of a 83 μmol/g solution of 3-Gd. This preparation was 9 M with respect to cis-aconitic anhydride.
Succinic acid (42.1 mg, 0.35 mmol) was added to an Eppendorf tube and mixed and mixed with 92 mg of a DMSO preparation (20 mM Radical 3 and 0.8 mM 3-Gd). This preparation was 4 M with respect to succinic acid.
Succinic anhydride (21.5 mg, 0.21 mmol) was added to an Eppendorf tube and mixed with 21.8 mg of a DMSO solution of Radical 3 (30 mM) and of 3-Gd (1 mM). This preparation was 6 M with respect to succinic anhydride.
Succinic-(1)-ethyl ester (111 mg, 0.75 mmol) was added to an Eppendorf tube and mixed with the carboxylic acid form of Radical 2 (2.4 mg, 1.5 μmol) and 3-Gd (3.4 μl of a 14.5 mM solution in water). This preparation was 6 M with respect to succinic-(1)-ethyl ester.
(§1) L-Glutamine (50.9 mg, 0.35 mmol) was added to an Eppendorf tube and dissolved in 29 μl of 12 M NaOH and mixed with 1.7 mg of radical 1 and 3-Gd (2.3 μl of a 14.5 mM water stock solution). This preparation was 4 M with respect to L-glutamine.

[2] = DNP solid-state polarization signal and build-up (1.2 K, 3.35 T); details: DNP at 1.2 K
Procedure: To this solution 1.1 mg (0.77 μmol) radical 1 was added. […] This entire sample was hyperpolarized under DNP conditions at 1.2 K in a 3.35 T magnetic field under irradiation with microwave (93.900 GHz) until the polarization was fully build-up. The polarization was monitored in solid state with small pulse angles (5 degree) collected every 300 s.
This entire sample was polarized under DNP conditions at 1.2 K in a 3.35 T magnetic field under irradiation with microwave (93.900 GHz) until the polarization was fully built-up. The polarization was monitored in solid state with small pulse angles (5 degree) collected every 300 s.
To this solution 0.77 mg (0.54 μmol) radical 1 was added. […] This entire sample was polarized under DNP conditions at 1.2 K in a 3.35 T magnetic field under irradiation with microwave (93.900 GHz) until the polarization was fully built-up. The polarization was monitored in solid state with small pulse angles (5 degree) collected every 300 s.
To this solution 1.65 mg (1.15 μmol) radical 1 was added. […] This entire sample was polarized under DNP conditions at 1.2 K in a 3.35 T magnetic field under irradiation with microwave (93.900 GHz) until the polarization was fully built-up. The polarization was monitored in solid state with small pulse angles (5 degree) collected every 300 s.
63.2 mg (0.33 mmol) of this sample was hyperpolarized under DNP conditions at 1.2 K in a 3.35 T magnetic field under irradiation with microwave (93.900 GHz) until the polarization was fully built-up.

[3] = Hydrolysis of the DNP hyperpolarized precursor on dissolution with strong base, followed by 13C-NMR time series; format: physicochemical; details: water with added NaOH
Procedure: (§2) The composition from example 1b (25 mg, 0.16 mmol) was transferred from the Eppendorf tube to a sample cup and the sample cup was inserted into a DNP polariser. The composition was hyperpolarised under DNP conditions at 1.2 K in a 3.35 T magnetic field under irradiation with microwave (93.915 GHz). The sample was hyperpolarized for 75 min.
The sample was dissolved in 4 ml water with added NaOH (50 μl of 12M solution). The pH of the dissolved sample was 12. The solution was collected directly into a 10 mm NMR tube and transferred to a 14.1 T magnet where a time series of 5 degree 1D 13C-NMR spectra were recorded with a total delay between the pulses of 1 s.
as §2, with “is (33” for “1b (25”, “0.25” for “0.16”, “90” for “75”
The sample was dissolved in 5 ml water with added NaOH (125 μl of 12M). The solution was collected directly into a 10 mm NMR tube and transferred to a 14.1 […]) T magnet where a time series of 5 degree 1D 13C-NMR spectra were recorded with a total delay between the pulses of 1 s.
(§3) The entire composition from example 2b was transferred from the Eppendorf tube to a sample cup and the sample cup was inserted into a DNP polariser. The composition was hyperpolarised under DNP conditions at 1.2 K in a 3.35 T magnetic field under irradiation with microwave (93.915 GHz). The sample was hyperpolarized for 3 hours.
(§4) The sample was dissolved in 5 ml water with added NaOH (125 μl of 12 M). The solution was collected directly into a 10 mm NMR tube and transferred to a 14.1 T magnet (pH 13) where a time series of 64 five degree 1D 13C-NMR spectra were recorded with a total delay between the pulses of 3 s.
as §2, with “is (20.5” for “1b (25”, “2 hours.” for “75 min.”
(§5) The sample was dissolved in 5 ml water with added NaOH (200 μl of 12 M). The solution was collected directly into a 10 mm NMR tube and transferred to a 14.1 T magnet (pH 12.8) where a time series of 5 degree 1D 13C-NMR spectra were recorded with a total delay between the pulses of 3 s.
as §3, with “The” for “The entire”, “2b was melted on a water-bath and stirred with a magnetic stirrer. 45 mg of this preparation (0.29 mmol)” for “2b”, “90 min.” for “3 hours.”
(§6) The sample was dissolved in 6 ml water with added NaOH (190 μl of 12 M). The solution was collected directly into a 10 mm NMR tube and transferred to a 14.1 T magnet (pH 12.8) where a time series of 64 five degree 1D 13C-NMR spectra were recorded with a total delay between the pulses of 3 s.

[4] = test system: carboxylic-ester hydrolase from porcine liver; test: Enzymatic hydrolysis of the hyperpolarized ester with esterase, 13C-NMR time series; format: biochemical; details: approximately 270 U esterase, phosphate buffer pH 7.3, 37° C.
From the text: The ester was fully hydrolyzed to acetoacetate after 12s.

[5] = molecular target: T1, acylase from porcine kidney (Sus scrofa, UniProt P37111); test: Enzymatic hydrolysis of the hyperpolarized N-acetyl amino acid with acylase, 13C-NMR time series; format: biochemical; details: phosphate buffer pH 7.3, 37° C.
T1 construct: an acylase from porcine kidney; from tissue; host or cells: porcine kidney
T1 sequence (P37111 2-407 limits assumed): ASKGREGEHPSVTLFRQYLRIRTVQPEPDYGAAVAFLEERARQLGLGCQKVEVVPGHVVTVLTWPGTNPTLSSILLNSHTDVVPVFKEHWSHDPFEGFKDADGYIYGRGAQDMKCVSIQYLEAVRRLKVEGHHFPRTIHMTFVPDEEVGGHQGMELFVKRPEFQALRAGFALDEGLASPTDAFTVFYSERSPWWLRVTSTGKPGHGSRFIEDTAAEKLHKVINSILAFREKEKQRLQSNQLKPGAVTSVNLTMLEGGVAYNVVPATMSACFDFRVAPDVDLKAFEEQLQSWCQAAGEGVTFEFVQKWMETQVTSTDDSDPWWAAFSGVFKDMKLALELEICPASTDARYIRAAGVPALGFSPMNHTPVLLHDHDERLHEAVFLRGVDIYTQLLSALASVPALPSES
Procedure: The sample was hyperpolarized for 60 min.
The 10 mm NMR tube contained a 1 ml phosphate solution of approximately 90 U of an acylase from porcine kidney.
35 mg of N-acetyl glycine (117.1 g/mol, 0.298 mmol) was dissolved in 26 μl 12 M NaOH. Heating, sonication and vortexing was applied to create a clear glassing solution. The total weight of the sample was 71 mg (50 μl weigh 65 mg). 1.05 mg Radical 1 and 1.5 μl of a 3-Gd stock solution ([…]) was added. The total N-acetyl glycine concentration in the sample was 5.5 M, the radical concentration was 13.5 mM, and the 3-Gd concentration was 0.4 mM.
The sample was dissolved in 7 ml 40 mM phosphate buffer (40 mM, pH 7.3). […] The 10 mm NMR tube contained a 500 μl phosphate solution of approximately 230 U of an acylase (5.2 mg) from porcine kidney.

[6] = Glass formation of the DNP preparation upon rapid freezing in liquid nitrogen; format: physicochemical; details: dissolved in heated water with Radical 1 and 3-Gd
[7] = Degradation / isomerisation of the substrate in DNP preparation and dissolution (NMR)
Procedure: as §3, with “2a” for “2b”, “75 min.” for “3 hours.”
The sample was dissolved in 5 ml phosphate buffer pH 7.3 (40 mM+EDTA).
The solution was collected directly into a 10 mm NMR tube and transferred to a 14.1 T magnet where a 90 degree 1D 13C-NMR spectrum was recorded.
as §4, §5
The sample was dissolved in 5 ml 40 mM phosphate buffer pH 7.3+100 mg/l EDTA, thus resulting in an ester concentration of 20 mM. 1 ml of the ester solution was injected through a transfer line into a 10 mm NMR tube placed at 14.1 T and 37° C. The 10 mm NMR tube contained a 500 μl solution of approximately 270 U of a carboxylic-ester hydrolase from porcine liver. A time series of 10 degree 1D 13C-NMR spectra were recorded with a total delay between the pulses of 3 s.
as §5, with “phosphate buffer (40 mM, pH 7.3)” for “water”, “30” for “NaOH (200”, “μl” for “μl of”, “M NaOH. […]” for “M).”, “magnet” for “magnet (pH 12.8)”
as §6, §1
N-acetyl-L-glutamine (57.2 mg, 0.3 mmol) was added to an Eppendorf tube and dissolved in 25.3 μl of 12 M NaOH and mixed with 1.9 mg of radical 1 and 3-Gd (2.3 μl of a 14.5 mM water stock solution).

| Structure (SMILES) | Glass formation upon rapid freezing in liquid nitrogen [1] | Polarization build-up time constant [2] | Glass formation upon rapid freezing [1] | also measured |
| --- | --- | --- | --- | --- |
| O=C1CCC([13C](=O)O)N1 (stereo not shown) [1-13C Pyroglutamic acid, reference compound] | formed a glass | 2000 s | – | – |
| C=C(CC(=O)O)[13C](=O)O [1-13C Itaconic acid, reference compound] | formed a glass | 1790 s | – | – |
| O=C1N[C@H]([13C](=O)O)CS1 [1-13C OTZ, 1-13C-L-oxothiazolidine-4-carboxylic acid, reference compound] | formed a glass | 3500 s | – | – |
| CCOC(=O)CC(C)=O [Ethyl acetoacetate] | – | – | formed a glass | Precursor hydrolyzed ([3]; after 10 s, pH 12-13): approximately 20%; Time after which ester was fully hydrolyzed [4]: 12 s |
| CCOC(=O)C1CCC(=O)N1 (stereo not shown) [1-13C pyroglutamic ethyl ester] | – | 2070 s | formed a glass | Precursor hydrolyzed ([3]; in less than 10 s, pH 11-12.6): at least 95% |
| C=C(CC(=O)OCC)[13C](=O)OCC [1-13C Itaconate diethyl ester] | – | 2120 s | formed a glass | – |
| CC(=O)NCC(=O)O [N-acetyl glycine] | – | – | – | Time after which precursor was fully hydrolyzed ([5]; approximately 230 U acylase): 30 s |
| CCO[13C](=O)C1CSC(=O)N1 (stereo not shown) [1-13C OTZ ethyl ester] | – | 1925 s | formed a glass | – |
| O=C([O-])CCC(=O)C(=O)[O-].[Na+].[Na+] [2-oxoglutarate sodium salt] | – | – | – | Glass formation upon rapid freezing in liquid nitrogen [6]: formed a glass |
| CC(=O)N[C@@H](CCC(N)=O)C(=O)O [N-acetyl-L-glutamine] | formed a glass | – | – | Time after which precursor was fully hydrolyzed ([5]; approximately 90 U acylase): 45 s; Degradation in the DNP preparation [7]: does not degrade; Degradation in the dissolution process ([7]; pH 7.3): does not degrade |
